In US20200165194A1, “ADDITIVE COMPOSITION FOR CULTURE MEDIUM, ADDITIVE COMPOUND FOR CULTURE MEDIUM, AND METHOD FOR CULTURE OF CELLS OR TISSUE USING SAME” (NISSAN CHEMICAL CORPORATION, priority 2017, published 2020):
Like-named read-outs stand apart in the source and are kept apart here.

Assays:
Type in all cases: cell-based
[1] = test system: Canine kidney renal tubule epithelial cells (MDCK cells); test: MDCK cells-2: Cyst formation on Matrigel, size and number of Cysts (Experimental Example 8); settings: for proportion of Cysts of 70 μm or more: 6 days, control 35%; for Cyst morphology, confocal fluorescence microscope (in words): FIG. 1
Procedure: Canine kidney renal tubule epithelial cells (MDCK cells, manufactured by DS PHARMA BIO MEDICAL) were precultured in EMEM medium containing 10% FBS and 1% NEAA. Cold Matrigel (registered trade mark) Matrix GFR (manufactured by Corning) was spread on a 24-well plate by 50 μL and fixed by incubating at 37° C. for 15 min. The aforementioned MDCK cells were suspended in a medium at 10000 cells/mL, cold Matrigel (registered trade mark) Matrix GFR was added at 20 μL/mL and seeded at 1 mL/well. […] As a control (compound no-addition), DMSO was added at a final concentration of 0.1%. Six days later, the size and number of Cysts formed were measured using Cell^3iMager (manufactured by Screen Inc.). The proportion of the Cysts of 70 μm or more in the entire Cysts is shown in the fourteenth table.
The cells were washed with PBS (1 mL/well), 4% paraformaldehyde/PBS (manufactured by Wako Pure Chemical Industries, Ltd.) was added (1 mL/well) and fixed at room temperature for 20 min. Thereafter, the supernatant was removed, IF buffer (0.2% Triton X-100 (manufactured by Sigma-Aldrich), 0.05% Tween 20 (manufactured by Sigma-Aldrich)-containing PBS) were added at 1 mL/well, stood for 30 min and removed. Penetration buffer (0.5% Triton X-100 (manufactured by Sigma-Aldrich)/PBS) was added at 1 mL/well and incubated at room temperature for 30 min. The supernatant was removed, washed 3 times every 5 min with IF buffer, blocking buffer (1% BSA (manufactured by Sigma-Aldrich)/IF buffer) was added at 0.5 mL/well and incubated for 30 min. The supernatant was removed, an anti-P catenin antibody (manufactured by BD Bioscience) diluted 100-fold with blocking buffer was added at 250 μL/well, and the cells were incubated at room temperature for 60 min. The cells were washed 3 times every 5 min with IF buffer, the secondary antibody (Alexa Fluor 555, manufactured by Thermo Fisher Scientific) and Phalloidin (Alexa Fluor 488, manufactured by Thermo Fisher Scientific), each diluted 250-fold with blocking buffer, were added at 250 μL/well, and the cells were incubated at room temperature in shading for 60 min.

[2] = test system: a plurality of cancer cell lines; test: Various human cancer cells-1, summary over the cell lines (Experimental Example 5); settings: cancer cell lines under three-dimensional conditions
Description: Various human-derived cancer cells were precultured (single layer culture) in respective media shown below. […]

[3] = test system: human epithelial-like cell cancer-derived cell line A431; test: Various human cancer cells-1, 3D culture, WST-8 (Experimental Example 5); settings: 4 days
Description: (§1) Various human-derived cancer cells were precultured (single layer culture) in respective media shown below. Human uterus cervix cancer-derived cell line HeLa (manufactured by American Type Culture Collection (hereinafter indicated as ATCC), 10% fetal bovine serum (FBS, manufactured by Corning)-containing Dulbecco's Modified Eagle's Medium (hereinafter abbreviated as DMEM) (manufactured by Wako Pure Chemical Industries, Ltd.)), human malignant melanoma-derived cell line A375 (manufactured by ATCC, 10% FBS-containing DMEM), human epithelial-like cell cancer-derived cell line A431 (manufactured by ATCC, 10% FBS and 1% MEM non-essential amino acid solution (MEM Non-Essential Amino Acids solution (hereinafter abbreviated as NEAA) (manufactured by Wako Pure Chemical Industries, Ltd.))-containing Eagle's Minimum Essential Medium (hereinafter abbreviated as EMEM) (manufactured by Wako Pure Chemical Industries, Ltd.)), human stomach adenocarcinoma-derived cell line AGS (manufactured by DS PHARMA BIO MEDICAL, 10% FBS-containing Ham's F-12 (manufactured by Wako Pure Chemical Industries, Ltd.)), human prostate cancer-derived cell line LNCaP clone FGC (manufactured by ATCC, 10% FBS-containing RPMI1640 (manufactured by Wako Pure Chemical Industries, Ltd.)), human colon adenocarcinoma-derived cell line HCT116 (manufactured by DS PHARMA BIO MEDICAL, 10% FBS-containing McCoy's 5A Medium (manufactured by Sigma-Aldrich)), human alveolar basal epithelial adenocarcinoma-derived cell line A549 (manufactured by DS PHARMA BIO MEDICAL, 10% FBS-containing DMEM), human prostate cancer-derived cell DU145 (manufactured by ATCC, 10% FBS-containing EMEM). The above-mentioned cells in the logarithmic growth phase were washed with PBS, a 0.25 w/v % trypsin-1 mmol/L EDTA (ethylenediaminetetraacetic acid) solution (manufactured by Wako Pure Chemical Industries, Ltd.) was added, and adherent cells were detached by incubating at 37° C. for 1-5 min. Each medium was added and the mixture was centrifuged. After resuspension in the same medium, each cell was recovered.
(§2) The aforementioned various cells were suspended in respective deacylated gellan gum-containing or not containing media (deacylated gellan gum concentration was 0.015 w/v %, and 0.020 w/v % for RPMI1640 alone), and seeded in a 96 well low attachment U-bottom plate (manufactured by Corning, deacylated gellan gum-free medium), or a low attachment flat bottom plate (manufactured by Corning, deacylated gellan gum-containing medium) at a cell concentration of 1000-12000 cells/135 μL/well (all 3D culture). After static culture overnight in 37° C., 5% CO2 incubator, a DMSO solution of the compound to be used in the present invention was added to each medium at a final concentration of 5 μM or 10 μM. The amount of each compound solution to be added was 15 μL/well. As a control, a DMSO solution dissolved in a medium was added (DMSO final concentration 0.1%). After continuously culturing in an incubator at 37° C., 5% CO2 for 4 days, WST-8 solution (manufactured by DOJINDO LABORATORIES) was added at 15 μL/well, and the mixture was reacted in the same incubator for 1-2 hr. […] When compared with the compound no-addition (control), one showing a value of not more than 119% as -, one showing a value of not less than 120% as ◯, and one showing a value of not less than 150% as ⊚ are shown in the tenth table.

[4] = test system: human malignant melanoma-derived cell line A375; test: as above; settings: 4 days; for viability at 5 µM / viability at 10 µM: Homo sapiens, A-375, 96 h, read-out: number of viable cells, relative value to control (100%)
Description: as §1, §2

[5] = test system: human prostate cancer-derived cell line LNCaP clone FGC; test: as above; settings: 4 days
Description: as §1, §2

[6] = low attachment U-bottom plate (gellan gum-free), 5 μM
[7] = low attachment U-bottom plate (gellan gum-free), 10 μM
[8] = low attachment flat bottom plate (gellan gum medium), 5 μM
[9] = low attachment flat bottom plate (gellan gum medium), 10 μM

CC/C(=N\NC(=O)C(C)Nc1ccccc1)c1ccc(O)c(C)c1O (stereo not shown) [k-1:B-1]
proportion of Cysts of 70 μm or more in the entire Cysts (in words) [1]: increased
proportion of Cysts of 70 μm or more ([1]; 5 μM): 72%
proportion of Cysts of 70 μm or more ([1]; 10 μM): 68%
Cyst morphology, confocal fluorescence microscope (in words) [1]: a normal Cyst was formed

CCC(=NNC(=O)C(CC)Nc1ccccc1)c1ccc(O)c(C)c1O (stereo not shown) [k-1:H-7]
proliferation activity (in words) [2]: promoted proliferation activity in a plurality of cancer cell lines
number of viable cells, relative value to control (100%) [3, 6]: ⊙
number of viable cells, relative value to control (100%) [3, 7]: ⊙
number of viable cells, relative value to control (100%) [3, 8]: ⊙
number of viable cells, relative value to control (100%) [3, 9]: ⊙
number of viable cells, relative value to control (100%) [4, 7]: ◯ (one showing a value of not less than 120% as ◯)
number of viable cells, relative value to control (100%) [4, 8]: ◯ (one showing a value of not less than 120% as ◯)
number of viable cells, relative value to control (100%) [5, 6]: ⊙
number of viable cells, relative value to control (100%) [5, 7]: ◯ (one showing a value of not less than 120% as ◯)

CC/C(=N\NC(=O)Nc1ccccc1)c1ccc(O)c(C)c1O [k-1:H-10]
proliferation activity (in words) [2]: promoted proliferation activity in a plurality of cancer cell lines
viability at 5 µM ([3]; Homo sapiens, A-431, 96 h, low attachment U-bottom plate (gellan gum-free), 5 μM, read-out: number of viable cells, relative value to control (100%)): < 119%
viability at 10 µM ([3]; Homo sapiens, A-431, 96 h, low attachment U-bottom plate (gellan gum-free), 10 μM, read-out: number of viable cells, relative value to control (100%)): < 119%
viability at 5 µM [4, 6]: < 119%
viability at 10 µM [4, 7]: 120 to 150%
viability at 5 µM [4, 8]: < 119%
viability at 10 µM [4, 9]: < 119%
viability at 5 µM ([5]; Homo sapiens, LNCaP-Clone-FGC, 96 h, low attachment U-bottom plate (gellan gum-free), 5 μM, read-out: number of viable cells, relative value to control (100%)): 120 to 150%
viability at 5 µM ([5]; Homo sapiens, LNCaP-Clone-FGC, 96 h, low attachment flat bottom plate (gellan gum medium), 5 μM, read-out: number of viable cells, relative value to control (100%)): < 119%
viability at 10 µM ([5]; Homo sapiens, LNCaP-Clone-FGC, 96 h, low attachment flat bottom plate (gellan gum medium), 10 μM, read-out: number of viable cells, relative value to control (100%)): < 119%
number of viable cells, relative value to control (100%) [5, 7]: ⊙

CC/C(=N\NC(=O)NCc1ccccc1)c1ccc(O)c(C)c1O [k-1:I-1]
proportion of Cysts of 70 μm or more in the entire Cysts (in words) [1]: increased
proportion of Cysts of 70 μm or more ([1]; 5 μM): 39%
proportion of Cysts of 70 μm or more ([1]; 10 μM): 43%
Cyst morphology, confocal fluorescence microscope (in words) [1]: a normal Cyst was formed
